Source: patent US20060134602A1, “Methods of identifying cytotoxic effects in quiescent cells” (priority 2004, published 2006)
Like-named read-outs stand apart in the source and are kept apart here. *1 amine or outer side, *2 acyl side, *3 side chain or, on linkers, in order; H or OH if unused. Where a SMILES comes first, the peptide text is derived from it. Bridges are numbered along the chain shown (N, C = ends). Roman numbers before positions name the chains, in order. [ ]: non-standard residue; d: D form. Actinocin(9to1) = Cc1c2oc3c(C)ccc(C(=O)[*:1])c3nc-2c(C(=O)[*:2])c(N)c1=O; NMeV = CN[C@H](C(=O)O)C(C)C; Sar = CNCC(=O)O

Tests used:
[1] = tested on: quiescent IMR-90 human lung fibroblasts; assay: cells
Procedure: Quantitation of Cytotoxicity: A luciferase assay kit was used to quantitate the amount of ATP produced by cells in each well to measure cytotoxicity of the compounds. The assay utilizes the enzyme luciferase which catalyses a reaction of ATP and luciferin to form light. The light produced is measured to determine the amount of ATP produced by the cells in each well. The higher the cell mortality in each well, the less ATP, and consequently, the less light will be produced. […] Wells in rows one and two, which contained no compound, were controls.
Preparation of Quiescent Cells: A 96 well plate was plated at 0.8×10^4 cells/well in 200 μL of growth medium (MEM with Earle's salt) with IMR-90 human lung fibroblasts. The cells were incubated at 37° C. for four days.
The media was removed from the wells, and each well was washed twice with 200 μL of MEM with Earle's salt and no serum. 90 μL/well of MEM with Earle's salt media containing sodium pyruvate, non-essential amino acids, L-glutamine and 0.1% fetal bovine serum was added to each well, and the cells were incubated for one day at 37° C.
10 μL of carbonyl cyanide (a positive control for cytotoxicity) stock solutions were added to rows one and two to obtain concentrations of 0 μM, 0.003 μM, 0.01 μM, 0.03 μM, 0.1 μM, 0.3 μM, 1.0 μM, 3.0 μM, 10.0 μM, 30.0 μM, and 100.0 μM in wells 2 through 12. 10 μL of stock solution of test compounds were added to duplicate row to obtain concentrations of 0 μM, 0.003 μM, 0.01 μM, 0.03 μM, 0.1 μM, 0.3 μM, 1.0 μM, 3.0 μM, 10.0 μM, 30.0 μM, and 100.0 μM in wells 2 through 12. The first well in each row contained no cells. […] The cells were incubated with the test compounds for 24 hours, 48 hours, or 72 hours.

[2] = tested on: proliferating cancer cells; conditions: cited from earlier work
[3] = read-out: IC50, 24 hours, quiescent IMR-90 human lung fibroblasts, 24 hours incubation
[4] = read-out: IC50, 48 hours, quiescent IMR-90 human lung fibroblasts, 48 hours incubation
[5] = read-out: IC50, 72 hours, quiescent IMR-90 human lung fibroblasts, 72 hours incubation
[6] = Homo sapiens, IMR-90, 24 h, read-out: IC50, 24 hours, quiescent IMR-90 human lung fibroblasts, 24 hours incubation
[7] = Homo sapiens, IMR-90, 48 h, read-out: IC50, 48 hours, quiescent IMR-90 human lung fibroblasts, 48 hours incubation
[8] = Homo sapiens, IMR-90, 72 h, read-out: IC50, 72 hours, quiescent IMR-90 human lung fibroblasts, 72 hours incubation

| Compound | IC50 [1, 3] [µM] | IC50 [1, 4] [µM] | IC50 [1, 5] [µM] | IC50 [1, 6] [µM] | IC50 [1, 7] [µM] | IC50 [1, 8] [µM] | further results |
| --- | --- | --- | --- | --- | --- | --- | --- |
| O=c1[nH]cc(F)c(=O)[nH]1 [5-FU, 5-fluorouricil] | > 10 | > 10 | > 10 |  |  |  |  |
| Cc1c2oc3c(C)ccc(C(=O)N[C@@H]4C(=O)N[C@H](C(C)C)C(=O)N5CCC[C@H]5C(=O)N(C)CC(=O)N(C)[C@@H](C(C)C)C(=O)O[C@@H]4C)c3nc-2c(C(=O)N[C@@H]2C(=O)N[C@H](C(C)C)C(=O)N3CCC[C@H]3C(=O)N(C)CC(=O)N(C)[C@@H](C(C)C)C(=O)O[C@@H]2C)c(N)c1=O [Atinomycin D, actinomycin D] (I: T[dV]P[Sar][NMeV] / II: T[dV]P[Sar][NMeV]; ester I:1-I:C, II:1-II:C; linker I:N-II:N via Actinocin(9to1)) | > 10 | > 10 | 3.1 |  |  |  | time dependence of cytotoxicity against quiescent fibroblasts [1]: time-dependent increases in cytotoxicity |
| COc1cccc2c1C(=O)c1c(O)c3c(c(O)c1C2=O)C[C@@](O)(C(=O)CO)C[C@@H]3O[C@H]1C[C@H](N)[C@H](O)[C@H](C)O1 [Doxorubicin, doxorubicin] |  |  |  | > 10 | 5.3 | 2.5 | time dependence of cytotoxicity against quiescent fibroblasts [1]: time-dependent increases in cytotoxicity |
| COc1cc([C@@H]2c3cc4c(cc3[C@@H](O[C@@H]3O[C@@H]5CO[C@@H](C)O[C@H]5[C@H](O)[C@H]3O)[C@H]3COC(=O)[C@H]23)OCO4)cc(OC)c1O [Etoposide, etoposide] |  |  |  | > 10 | > 10 | > 10 |  |
| Nc1ccn([C@@H]2O[C@H](CO)[C@@H](O)C2(F)F)c(=O)n1 [Gemcitabine, gemcitabine] |  |  |  | > 10 | > 10 | > 10 |  |
| CO[C@@]12[C@H](COC(N)=O)C3=C(C(=O)C(C)=C(N)C3=O)N1C[C@@H]1N[C@@H]12 [Mitomycin C, mitomycin C] | > 10 | > 10 | 5 |  |  |  |  |
| O=C1[O][Pt]2([NH][C@@H]3CCCC[C@H]3[NH]2)[O]C1=O [Oxaliplatin, oxaliplatin] | > 10 | > 10 | > 10 |  |  |  |  |
| CC(=O)O[C@H]1C(=O)[C@@]2(C)[C@H]([C@H](OC(=O)c3ccccc3)[C@]3(O)C[C@H](OC(=O)[C@H](O)[C@@H](NC(=O)c4ccccc4)c4ccccc4)C(C)=C1C3(C)C)[C@]1(OC(C)=O)CO[C@@H]1C[C@@H]2O [Paclitaxel, paclitaxel] |  |  | 10 | > 10 | > 10 | 8.5 | concentration at which cytotoxic to quiescent fibroblasts ([1]; human, 72 h): approximately 10 μM; concentration inhibiting cancer cell growth [2]: low nanomolar concentration |
| CCc1c2c(nc3ccc(O)cc13)-c1cc3c(c(=O)n1C2)COC(=O)[C@]3(O)CC [SN-38] | 7.1 | 8 | 8.5 |  |  |  |  |
| CC[C@]1(O)C[C@@H]2CN(CCc3c([nH]c4ccccc34)[C@@](C(=O)OC)(c3cc4c(cc3OC)N(C)[C@H]3[C@@](O)(C(=O)OC)[C@H](OC(C)=O)[C@]5(CC)C=CCN6CC[C@]43[C@@H]65)C2)C1 [Vinblastine, vinblastine] |  |  |  | > 10 | > 10 | > 10 |  |
| CC[C@]1(O)C[C@H]2CN(CCc3c([nH]c4ccccc34)[C@@](C(=O)OC)(c3cc4c(cc3OC)N(C=O)[C@H]3[C@@](O)(C(=O)OC)[C@H](OC(C)=O)[C@]5(CC)C=CCN6CC[C@]43[C@@H]65)C2)C1 [Vincristine, vincristine] |  |  |  | > 10 | > 10 | > 10 |  |
| C[C@@H]1C[C@@H]([C@H](O)CC2CC(=O)NC(=O)C2)C(=O)[C@@H](C)C1 [cycloheximide] |  |  |  |  |  |  | IC50 ([1]; Homo sapiens, IMR-90, 24 h, read-out: IC50, 24 hours): > 10 µM; IC50 ([1]; Homo sapiens, IMR-90, 48 h, read-out: IC50, 48 hours): > 10 µM; IC50 ([1]; Homo sapiens, IMR-90, 72 h, read-out: IC50, 72 hours): > 10 µM |
